What was measured:
[1] = tested on: Bmi-1 protein; assay: Sandwich ELISA Assay (Bmi-1 protein level in HT-1080 cells); assay type: cell-based
Method in brief: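 HT-1080 cells were treated with compounds (0.5% DMSO final) for 40-48 h at 37 °C. Lysates were assayed by sandwich ELISA: mouse anti-Bmi-1 capture, rabbit anti-Bmi-1 and HRP anti-rabbit detection, TMB read at OD450 (OD570 reference). Levels were quantified against a recombinant GST-Bmi-1 standard curve (125-8000 pg/mL).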

Row | SMILES | melting point | EC50 [1]
1 | Nc1cc(-c2c(C(F)F)nc3ccc(F)cn23)nc(Nc2ccc(C(F)(F)F)cc2)n1 [Cpd 63, 6-[2-(difluoromethyl)-6-fluoroimidazo[1,2-a]pyridin-3-yl]-N^2-[4-(trifluoromethyl)phenyl]pyrimidine-2,4-diamine] | 242 to 245 °C | 100 to 3000 nM
2 | COCc1nc2ccccc2n1-c1cc(N)nc(Nc2ccc(C(F)(F)F)cc2)n1 [Cpd 73, 6-[2-(methoxymethyl)-1H-benzimidazol-1-yl]-N^2-[4-(trifluoromethyl)phenyl]pyrimidine-2,4-diamine] | 209 to 211 °C | 100 to 3000 nM
3 | CC(C)c1nc2ccccc2n1-c1cc(N)nc(Nc2ccc(C(F)(F)F)cc2)n1 [Cpd 74, 6-[2-(propan-2-yl)-1H-benzimidazol-1-yl]-N^2-[4-(trifluoromethyl)phenyl]pyrimidine-2,4-diamine] | 168 to 171 °C | 100 to 3000 nM
4 | CC(C)c1nc2cc(F)ccc2n1-c1cc(N)nc(Nc2ccc(OC(F)F)cc2)n1 [Cpd 81, N^2-[4-(difluoromethoxy)phenyl]-6-[5-fluoro-2-(propan-2-yl)-1H-benzimidazol-1-yl]pyrimidine-2,4-diamine] | 118 to 120 °C | 100 to 3000 nM
5 | Nc1cc(-n2c(C3CC3)nc3cc(F)ccc32)nc(Nc2ccc(C(F)(F)F)cc2)n1 [Cpd 103, 6-(2-cyclopropyl-5-fluoro-1H-benzimidazol-1-yl)-N^2-[4-(trifluoromethyl)phenyl]pyrimidine-2,4-diamine] | 237 to 238 °C | 10 to 100 nM
6 | Cc1nc2cc(F)ccc2n1-c1cc(N)nc(Nc2ccc(OC(F)F)c(F)c2)n1 [Cpd 105, N^2-[4-(difluoromethoxy)-3-fluorophenyl]-6-(5-fluoro-2-methyl-1H-benzimidazol-1-yl)pyrimidine-2,4-diamine] | 172 to 173 °C | 10 to 100 nM
7 | COc1ccn2nc(C3CC3)c(-c3cc(N)nc(Nc4ccc(C(F)(F)F)cc4)n3)c2c1 [Cpd 106, 6-(2-cyclopropyl-5-methoxypyrazolo[1,5-a]pyridin-3-yl)-N^2-[4-(trifluoromethyl)phenyl]pyrimidine-2,4-diamine] | 172 to 174 °C | 100 to 3000 nM
8 | CCc1nn2ccc(F)cc2c1-c1cc(N)nc(Nc2ccc(C(F)(F)F)cc2)n1 [Cpd 111, 6-(2-ethyl-5-fluoropyrazolo[1,5-a]pyridin-3-yl)-N^2-[4-(trifluoromethyl)phenyl]pyrimidine-2,4-diamine] | 153 to 157 °C | 10 to 100 nM
9 | Cc1nn2c(=O)n(C)c(C)cc2c1-c1cc(N)nc(Nc2ccc(C(F)(F)F)cc2)n1 [Cpd 117, 3-(6-amino-2-{[4-(trifluoromethyl)phenyl]amino}pyrimidin-4-yl)-2,5,6-trimethylpyrazolo[1,5-c]pyrimidin-7(6H)-one] | 270 to 273 °C | 100 to 3000 nM
10 | Nc1cc(-c2c(C3CC3)nn3ccccc23)nc(Nc2ccc(C(F)(F)F)cc2)n1 [Cpd 126, 6-(2-cyclopropylpyrazolo[1,5-a]pyridin-3-yl)-N^2-[4-(trifluoromethyl)phenyl]pyrimidine-2,4-diamine] | 181 to 183 °C | 100 to 3000 nM
11 | Cc1nc2ccc(F)cc2n1-c1cc(N)nc(Nc2ccc(Cl)cc2)n1 [Cpd 135, N^2-(4-chlorophenyl)-6-(6-fluoro-2-methyl-1H-benzimidazol-1-yl)pyrimidine-2,4-diamine] | 149 to 151 °C | 10 to 100 nM
12 | Cc1nc2ccc(F)cc2n1-c1cc(N)nc(Nc2ccc(C#N)cc2)n1 [Cpd 137, 4-{[4-amino-6-(6-fluoro-2-methyl-1H-benzimidazol-1-yl)pyrimidin-2-yl]amino}benzonitrile] | 183 to 185 °C | 100 to 3000 nM
13 | Cc1nc2ccc(F)cc2n1-c1cc(N)nc(Nc2cccc(F)c2)n1 [Cpd 138, 6-(6-fluoro-2-methyl-1H-benzimidazol-1-yl)-N^2-(3-fluorophenyl)pyrimidine-2,4-diamine] | 239 to 241 °C | 100 to 3000 nM
14 | Cc1cccc(Nc2nc(N)cc(-n3c(C)nc4ccc(F)cc43)n2)c1 [Cpd 139, 6-(6-fluoro-2-methyl-1H-benzimidazol-1-yl)-N^2-(3-methylphenyl)pyrimidine-2,4-diamine] | 156 to 158 °C | 100 to 3000 nM
15 | COc1cccc(Nc2nc(N)cc(-n3c(C)nc4ccc(F)cc43)n2)c1 [Cpd 140, 6-(6-fluoro-2-methyl-1H-benzimidazol-1-yl)-N^2-(3-methoxyphenyl)pyrimidine-2,4-diamine] | 127 to 129 °C | 100 to 3000 nM
16 | Cc1nc2ccc(F)cc2n1-c1cc(N)nc(Nc2cccc(Cl)c2)n1 [Cpd 141, N^2-(3-chlorophenyl)-6-(6-fluoro-2-methyl-1H-benzimidazol-1-yl)pyrimidine-2,4-diamine] | 211 to 213 °C | 100 to 3000 nM
17 | Cc1nc2ccc(F)cc2n1-c1cc(N)nc(Nc2ccccc2)n1 [Cpd 143, 6-(6-fluoro-2-methyl-1H-benzimidazol-1-yl)-N^2-phenylpyrimidine-2,4-diamine] | 158 to 161 °C | 100 to 3000 nM
18 | CCc1nc2ccccc2n1-c1cc(N)nc(Nc2ccccc2C)n1 [Cpd 152, 6-(2-ethyl-1H-benzimidazol-1-yl)-N^2-(2-methylphenyl)pyrimidine-2,4-diamine] | 119 to 120 °C | 100 to 3000 nM
19 | CCc1nc2ccccc2n1-c1cc(N)nc(Nc2ccc3c(c2)OCO3)n1 [Cpd 154, N^2-(1,3-benzodioxol-5-yl)-6-(2-ethyl-1H-benzimidazol-1-yl)pyrimidine-2,4-diamine] | 119 to 121 °C | 10 to 100 nM

Other lines, results leading:

Row | melting point | EC50 [1] | SMILES
20 | 177 to 179 °C | 10 to 100 nM | Nc1cc(-n2c(C3CC3)nc3ccc(F)cc32)nc(Nc2ccc(OC(F)F)cc2)n1 [Cpd 70, 6-(2-cyclopropyl-6-fluoro-1H-benzimidazol-1-yl)-N^2-[4-(difluoromethoxy)phenyl]pyrimidine-2,4-diamine]
21 | 171 to 173 °C | 10 to 100 nM | CCc1nc2ccc(F)cc2n1-c1cc(N)nc(Nc2ccc(OC(F)F)cc2)n1 [Cpd 71, N^2-[4-(difluoromethoxy)phenyl]-6-(2-ethyl-6-fluoro-1H-benzimidazol-1-yl)pyrimidine-2,4-diamine]
22 | 120 to 122 °C | 10 to 100 nM | COCc1nc2ccc(F)cc2n1-c1cc(N)nc(Nc2ccc(OC(F)F)cc2)n1 [Cpd 78, N^2-[4-(difluoromethoxy)phenyl]-6-[6-fluoro-2-(methoxymethyl)-1H-benzimidazol-1-yl]pyrimidine-2,4-diamine]
23 | 167 to 169 °C | 10 to 100 nM | CC(C)c1nc2ccc(F)cc2n1-c1cc(N)nc(Nc2ccc(OC(F)F)cc2)n1 [Cpd 79, N^2-[4-(difluoromethoxy)phenyl]-6-[6-fluoro-2-(propan-2-yl)-1H-benzimidazol-1-yl]pyrimidine-2,4-diamine]
24 | 136 to 138 °C | 10 to 100 nM | Nc1cc(-n2c(C3CC3)nc3cc(F)ccc32)nc(Nc2ccc(OC(F)F)cc2)n1 [Cpd 80, 6-(2-cyclopropyl-5-fluoro-1H-benzimidazol-1-yl)-N^2-[4-(difluoromethoxy)phenyl]pyrimidine-2,4-diamine]
25 | 114 to 115 °C | 1 to 10 nM | Nc1cc(-n2c(C(F)F)nc3ccccc32)nc(Nc2ccc(OC(F)F)cc2)n1 [Cpd 88, N^2-[4-(difluoromethoxy)phenyl]-6-[2-(difluoromethyl)-1H-benzimidazol-1-yl]pyrimidine-2,4-diamine]
26 | 184 to 187 °C | 10 to 100 nM | CC(C)c1nc2ccccc2n1-c1cc(N)nc(Nc2ccc(OC(F)F)cc2)n1 [Cpd 89, N^2-[4-(difluoromethoxy)phenyl]-6-[2-(propan-2-yl)-1H-benzimidazol-1-yl]pyrimidine-2,4-diamine]
27 | 149 to 150 °C | ≤ 1 nM | COc1ccc(Nc2nc(N)cc(-n3c(C)nc4ccccc43)n2)cc1 [Cpd 129, N^2-(4-methoxyphenyl)-6-(2-methyl-1H-benzimidazol-1-yl)pyrimidine-2,4-diamine]
28 | 118 to 119 °C | 1 to 10 nM | Cc1nc2ccccc2n1-c1cc(N)nc(Nc2ccc3c(c2)OCO3)n1 [Cpd 130, N^2-(1,3-benzodioxol-5-yl)-6-(2-methyl-1H-benzimidazol-1-yl)pyrimidine-2,4-diamine]
29 | 118 to 120 °C | 1 to 10 nM | Cc1ccc(Nc2nc(N)cc(-n3c(C)nc4ccc(F)cc43)n2)cc1 [Cpd 134, 6-(6-fluoro-2-methyl-1H-benzimidazol-1-yl)-N^2-(4-methylphenyl)pyrimidine-2,4-diamine]
30 | 232 to 235 °C | 1 to 10 nM | Cc1nc2ccc(F)cc2n1-c1cc(N)nc(Nc2ccc(N(C)C)cc2)n1 [Cpd 136, N^2-[4-(dimethylamino)phenyl]-6-(6-fluoro-2-methyl-1H-benzimidazol-1-yl)pyrimidine-2,4-diamine]
31 | 166 to 167 °C | 1 to 10 nM | COc1ccc(Nc2nc(N)cc(-n3c(C)nc4ccc(F)cc43)n2)cc1F [Cpd 142, N^2-(3-fluoro-4-methoxyphenyl)-6-(6-fluoro-2-methyl-1H-benzimidazol-1-yl)pyrimidine-2,4-diamine]
32 | 186 to 187 °C | 1 to 10 nM | COc1ccc(Nc2nc(N)cc(-n3c(C)nc4ccccc43)n2)cc1F [Cpd 148, N^2-(3-fluoro-4-methoxyphenyl)-6-(2-methyl-1H-benzimidazol-1-yl)pyrimidine-2,4-diamine]
33 | 172 to 173 °C | 1 to 10 nM | CCc1nc2ccccc2n1-c1cc(N)nc(Nc2ccc(Cl)cc2)n1 [Cpd 150, N^2-(4-chlorophenyl)-6-(2-ethyl-1H-benzimidazol-1-yl)pyrimidine-2,4-diamine]
34 | 144 to 145 °C | 1 to 10 nM | CCc1nc2ccccc2n1-c1cc(N)nc(Nc2ccc(OC)cc2)n1 [Cpd 151, 6-(2-ethyl-1H-benzimidazol-1-yl)-N^2-(4-methoxyphenyl)pyrimidine-2,4-diamine]

Reference: patent US10370371B2, “Substituted pyrimidine Bmi-1 inhibitors” (PTC Therapeutics, Inc., priority 2013, dated 2019)
